Assay results taken from BindingDB's records for doi:10.1016/j.ejphar.2003.10.049 (University of Innsbruck, 2004).

What was measured:
[1] = molecular target: Kappa-type opioid receptor (Rattus norvegicus, UniProt P34975)
[2] = molecular target: Delta-type opioid receptor (Rattus norvegicus, UniProt P33533)
Mu-type opioid receptor = Mu-type opioid receptor (Rattus norvegicus, UniProt P33535)
Chain of Mu-type opioid receptor (P33535 whole entry): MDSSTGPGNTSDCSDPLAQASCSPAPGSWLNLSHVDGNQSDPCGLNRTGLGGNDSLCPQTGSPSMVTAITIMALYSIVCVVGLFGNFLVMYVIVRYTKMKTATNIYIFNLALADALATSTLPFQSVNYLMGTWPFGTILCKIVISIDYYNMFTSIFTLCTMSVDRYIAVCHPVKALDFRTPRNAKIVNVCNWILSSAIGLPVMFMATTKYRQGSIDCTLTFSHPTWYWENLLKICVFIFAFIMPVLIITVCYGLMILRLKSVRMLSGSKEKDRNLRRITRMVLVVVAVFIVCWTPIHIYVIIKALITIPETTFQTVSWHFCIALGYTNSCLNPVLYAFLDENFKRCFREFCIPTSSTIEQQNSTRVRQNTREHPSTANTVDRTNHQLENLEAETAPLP

Chain of Kappa-type opioid receptor (P34975 whole entry): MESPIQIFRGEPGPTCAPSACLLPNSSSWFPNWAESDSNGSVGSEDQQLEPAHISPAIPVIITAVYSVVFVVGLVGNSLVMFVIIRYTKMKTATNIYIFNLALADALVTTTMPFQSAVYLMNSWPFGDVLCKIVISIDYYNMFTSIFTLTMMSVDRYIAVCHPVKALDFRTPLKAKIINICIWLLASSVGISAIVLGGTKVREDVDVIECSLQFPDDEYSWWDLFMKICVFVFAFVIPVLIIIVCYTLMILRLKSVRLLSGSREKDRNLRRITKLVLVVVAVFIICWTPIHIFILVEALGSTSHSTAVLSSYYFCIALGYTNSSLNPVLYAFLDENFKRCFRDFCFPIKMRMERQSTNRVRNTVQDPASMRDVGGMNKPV
Chain of Delta-type opioid receptor (P33533 whole entry): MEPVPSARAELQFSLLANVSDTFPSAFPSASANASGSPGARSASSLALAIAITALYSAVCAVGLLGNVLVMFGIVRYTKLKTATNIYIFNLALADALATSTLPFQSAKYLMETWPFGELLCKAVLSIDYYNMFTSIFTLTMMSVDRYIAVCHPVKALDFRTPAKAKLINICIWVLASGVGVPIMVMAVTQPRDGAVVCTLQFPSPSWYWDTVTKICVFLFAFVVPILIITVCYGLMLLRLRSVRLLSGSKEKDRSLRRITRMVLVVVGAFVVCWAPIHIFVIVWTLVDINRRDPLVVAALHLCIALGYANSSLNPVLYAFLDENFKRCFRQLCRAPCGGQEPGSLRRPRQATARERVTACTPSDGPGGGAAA

SMILES | Ki [1] [nM] | Ki [2] [nM] | Ki (Mu-type opioid receptor) [nM]
COC12CC[C@@H](N[C@H](C)C(=O)O)[C@@H]3Oc4c(O)ccc5c4[C@@]31CCN(C)C2C5 (stereo partly drawn) [(2S)-2-[4,5alpha-epoxy-3-hydroxy-14beta-methoxy-17-methylmorphinan-6beta-yl)amino]propanoic acid bis(tetrafluoroborate)] | 63.7 | 7.71 | –
COC12CC[C@H](N[C@H](C)C(=O)O)[C@@H]3Oc4c(O)ccc5c4[C@@]31CCN(C)C2C5 (stereo partly drawn) [(2S)-2-[4,5alpha-epoxy-3-hydroxy-14beta-methoxy-17-methylmorphinan-6alpha-yl)amino]propanoic acid bis(tetrafluoroborate)] | 142 | 26.9 | –
COC12CC[C@H](N[C@H](Cc3ccccc3)C(=O)O)[C@@H]3Oc4c(O)ccc5c4[C@@]31CCN(C)C2C5 (stereo partly drawn) [(2S)-2-[(4,5alpha-epoxy-3-hydroxy-14beta-methoxy-17-methylmorphinan-6alpha-yl)amino]-3-phenylpropanoic acid bis(tetrafluroborate)] | 28.5 | – | 0.95
COC12CC[C@@H](N[C@H](Cc3ccccc3)C(=O)O)[C@@H]3Oc4c(O)ccc5c4[C@@]31CCN(C)C2C5 (stereo partly drawn) [(2S)-2-[(4,5alpha-epoxy-3-hydroxy-14beta-methoxy-17-methylmorphinan-6beta-yl)amino]-3-phenylpropanoic acid bis(tetrafluoroborate)] | 151 | 1.03 | 2.58
CCO[C@@]12Cc3c([nH]c4ccccc34)[C@]3(C)Oc4c(O)ccc5c4[C@@]31CCN(CC1CC1)C2C5 [HS-378] | 134 | – | 340
